Experimental data from publication PMC7307906, “Macrocyclic Modalities Combining Peptide Epitopes and Natural Product Fragments” (Journal of the American Chemical Society, 2020).
Where a SMILES comes first, the peptide text is derived from it.

Assays:
human MC4R [1] = target: T1, human MC4R (Homo sapiens, UniProt P32245); test: cAMP assay (LANCE) in T-Rex-293 cells expressing MC4R; assay type: cell-based; conditions: cAMP assay; mean (± SEM) of at least three independent experiments; read-out: EC50 hMC4R cAMP
T1 construct: expressed in transfected cells

human MC1R [2] = target: T2, human MC1R (Homo sapiens, UniProt Q01726); test: cAMP assay (LANCE) in T-Rex-293 cells expressing MC1R; assay type: cell-based; conditions: for Emax: T-REx-293, read-out: % Effect hMC1R cAMP; for EC50: mean (± SEM) of at least three independent experiments, read-out: EC50 hMC1R cAMP
T2 construct: expressed in transfected cells

human MC3R [3] = target: T3, human MC3R (Homo sapiens, UniProt P41968); test: cAMP assay (LANCE) in T-Rex-293 cells expressing MC3R; assay type: cell-based; conditions: cAMP assay; mean (± SEM) of at least three independent experiments; read-out: EC50 hMC3R cAMP
T3 construct: expressed in transfected cells

human MC5R = target: T4, human MC5R (Homo sapiens, UniProt P33032); test: Melanocortin receptor radioligand binding (SPA, [125I]-NDP-α-MSH displacement), MC5R; conditions: competitive binding, [125I]-NDP-α-MSH; mean (± SEM) of at least three independent experiments; read-out: IC50 hMC5R binding
T4 construct: expressed in transfected cells; host or cells: HEK293-6E suspension cells, transient expression; membranes

human MC4R [4] = target: T1, human MC4R; test: Melanocortin receptor radioligand binding (SPA, [125I]-NDP-α-MSH displacement), MC4R; conditions: competitive binding, mean (± SEM) of at least three independent experiments, read-out: IC50 hMC4R binding
human MC3R [5] = target: T3, human MC3R; test: Melanocortin receptor radioligand binding (SPA, [125I]-NDP-α-MSH displacement), MC3R; conditions: competitive binding, mean (± SEM) of at least three independent experiments, read-out: IC50 hMC3R binding
human MC1R [6] = target: T2, human MC1R; test: Melanocortin receptor radioligand binding (SPA, [125I]-NDP-α-MSH displacement), MC1R; conditions: competitive binding, mean (± SEM) of at least three independent experiments, read-out: IC50 hMC1R binding

T1 sequence (P32245 whole entry): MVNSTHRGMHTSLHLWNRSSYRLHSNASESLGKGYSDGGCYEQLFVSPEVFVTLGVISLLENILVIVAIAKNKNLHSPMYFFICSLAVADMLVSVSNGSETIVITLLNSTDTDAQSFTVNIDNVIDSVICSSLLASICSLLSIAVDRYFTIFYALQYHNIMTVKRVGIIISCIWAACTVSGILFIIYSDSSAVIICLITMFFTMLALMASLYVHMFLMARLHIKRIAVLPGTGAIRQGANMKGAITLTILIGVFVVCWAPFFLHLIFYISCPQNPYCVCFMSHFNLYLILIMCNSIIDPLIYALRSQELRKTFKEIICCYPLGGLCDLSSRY
T3 sequence (P41968 whole entry): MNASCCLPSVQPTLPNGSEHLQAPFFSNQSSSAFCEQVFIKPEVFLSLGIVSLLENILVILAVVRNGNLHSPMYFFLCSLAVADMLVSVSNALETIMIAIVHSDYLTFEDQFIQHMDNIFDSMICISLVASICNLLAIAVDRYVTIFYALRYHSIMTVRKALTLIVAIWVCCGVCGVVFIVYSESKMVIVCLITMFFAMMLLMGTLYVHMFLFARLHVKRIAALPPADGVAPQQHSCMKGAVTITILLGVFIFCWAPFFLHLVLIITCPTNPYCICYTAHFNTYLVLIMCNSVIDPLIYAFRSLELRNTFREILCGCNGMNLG
T4 sequence (P33032 whole entry): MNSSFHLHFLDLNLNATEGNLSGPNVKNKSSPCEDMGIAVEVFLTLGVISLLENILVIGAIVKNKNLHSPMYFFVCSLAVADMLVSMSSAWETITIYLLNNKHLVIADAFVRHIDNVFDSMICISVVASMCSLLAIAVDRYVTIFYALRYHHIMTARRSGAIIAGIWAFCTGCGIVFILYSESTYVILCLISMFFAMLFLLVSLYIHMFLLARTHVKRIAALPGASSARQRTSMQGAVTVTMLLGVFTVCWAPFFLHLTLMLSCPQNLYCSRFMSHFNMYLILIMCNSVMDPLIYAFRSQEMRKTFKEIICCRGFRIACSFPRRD
T2 sequence (Q01726 whole entry): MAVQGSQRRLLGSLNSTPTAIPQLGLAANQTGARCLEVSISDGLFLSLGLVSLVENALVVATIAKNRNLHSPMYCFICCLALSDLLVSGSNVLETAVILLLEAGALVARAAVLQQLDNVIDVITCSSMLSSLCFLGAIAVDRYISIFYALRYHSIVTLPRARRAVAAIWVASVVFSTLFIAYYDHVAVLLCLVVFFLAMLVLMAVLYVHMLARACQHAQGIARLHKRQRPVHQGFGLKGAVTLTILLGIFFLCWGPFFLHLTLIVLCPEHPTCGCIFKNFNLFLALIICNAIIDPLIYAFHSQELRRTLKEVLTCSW

| SMILES | EC50 (human MC4R [1]) | Emax (human MC1R [2]) | EC50 (human MC1R [2]; cAMP assay) | EC50 (human MC3R [3]) | IC50 (human MC5R) | IC50 (human MC4R [4]) | IC50 (human MC3R [5]) | IC50 (human MC1R [6]) | % Effect hMC1R cAMP at 100 µM (human MC1R [2]; % effect at 100 µM, compounds not reaching an upper plateau (§)) | agonistic activity at MC1R (in words) (human MC1R [2]; cAMP assay, hMC1R) |
| --- | --- | --- | --- | --- | --- | --- | --- | --- | --- | --- |
| C[C@@H]1NC(=O)[C@H](CC(N)=O)NC(=O)[C@H](Cc2ccccc2)NC(=O)[C@H](Cc2ccccc2)NC(=O)[C@H](CCCNC(=N)N)NC(=O)[C@H](Cc2ccccc2)N(C)C(=O)[C@H]2N[C@@H](c3ccc(cc3)C(=O)NCCCC[C@@H](C(=O)N[C@@H](Cc3ccc(O)cc3)C(N)=O)NC1=O)[C@H]1C(=O)N(C)C(=O)[C@H]12 [F1-major*, [ I-FRFFNAK ]Y] | > 100 µM | 31% | 14 ± 4 µM | > 100 µM | 49 ± 2 µM | > 100 µM | > 100 µM | > 100 µM |  |  |
| C[C@@H]1NC(=O)[C@H](CC(N)=O)NC(=O)[C@H](Cc2ccccc2)NC(=O)[C@H](Cc2ccccc2)NC(=O)[C@H](CCCNC(=N)N)NC(=O)[C@H](Cc2ccccc2)N(C)C(=O)[C@H]2N[C@@H](c3ccc(cc3)C(=O)NCCCC[C@@H](C(=O)NCC(N)=O)NC(=O)[C@H](Cc3ccccc3)NC1=O)[C@H]1C(=O)N(C)C(=O)[C@H]12 [B2-minor, [ I-FRFFNAFK ]G] | > 100 µM | 39% | 10 ± 2 µM | > 100 µM | 31 ± 0.4 µM | 96 ± 4 µM | > 100 µM | > 100 µM |  |  |
| C[C@@H]1NC(=O)[C@H](CC(N)=O)NC(=O)[C@H](Cc2ccccc2)NC(=O)[C@H](Cc2ccccc2)NC(=O)[C@H](CCCNC(=N)N)NC(=O)[C@H](Cc2ccccc2)N(C)C(=O)[C@H]2N[C@@H](c3ccc(cc3)C(=O)NCCCC[C@@H](C(=O)N[C@@H](Cc3ccc(O)cc3)C(N)=O)NC1=O)[C@H]1C(=O)N(c3ccccc3)C(=O)[C@H]12 [F2-minor, [ II-FRFFNAK ]Y] | > 100 µM | 40% | 9.3 ± 3.6 µM | > 100 µM | 6.5 ± 0.9 µM | 91 ± 5 µM | 85 ± 6 µM | 81 ± 3 µM |  |  |
| COc1ccc(N2C(=O)[C@@H]3[C@H](C2=O)[C@H]2N[C@@H]3C(=O)N(C)[C@@H](Cc3ccccc3)C(=O)N[C@@H](CCCNC(=N)N)C(=O)N[C@H](Cc3ccccc3)C(=O)N[C@H](Cc3ccccc3)C(=O)N[C@@H](CC(N)=O)C(=O)N[C@H](C(=O)NCC(N)=O)CCCCNC(=O)c3ccc2cc3)cc1 [K4-minor, [III-FRffNK ]G] | > 100 µM |  | > 100 µM | > 100 µM | 91 ± 3 µM | > 100 µM | > 100 µM | > 100 µM | 23% |  |
| C[C@@H]1NC(=O)[C@H](CC(N)=O)NC(=O)[C@H](Cc2ccccc2)NC(=O)[C@H](Cc2ccccc2)NC(=O)[C@H](CCCNC(=N)N)NC(=O)[C@H](Cc2ccccc2)N(C)C(=O)[C@@H]2N[C@H](c3ccc(cc3)C(=O)NCCCC[C@@H](C(=O)N[C@@H](Cc3ccc(O)cc3)C(N)=O)NC1=O)[C@@H]1C(=O)N(C)C(=O)[C@@H]12 [F1-minor*, [ I-FRFFNAK ]Y] | > 100 µM | 36% | 10 ± 1 µM | > 100 µM | 16 ± 1 µM | 57 ± 5 µM | 80 ± 5 µM | 65 ± 6 µM |  |  |
| CN1C(=O)[C@H]2N[C@@H](c3ccc(cc3)C(=O)NCCCC[C@@H](C(N)=O)NC(=O)[C@H](Cc3ccccc3)NC(=O)[C@H](Cc3ccccc3)NC(=O)[C@H](CCCNC(=N)N)NC(=O)[C@@H]1Cc1ccccc1)[C@H]1C(=O)N(c3ccccc3)C(=O)[C@H]12 [N3-major*, [II-FRFFK ]] | > 100 µM | 40% | 22 ± 3 µM | > 100 µM | 74 ± 4 µM | > 100 µM | > 100 µM | > 100 µM |  |  |
| C[C@@H]1NC(=O)[C@H](CC(N)=O)NC(=O)[C@@H](Cc2ccccc2)NC(=O)[C@@H](Cc2ccccc2)NC(=O)[C@H](CCCNC(=N)N)NC(=O)[C@H](Cc2ccccc2)N(C)C(=O)[C@@H]2N[C@H](c3ccc(cc3)C(=O)NCCCC[C@@H](C(=O)N[C@@H](Cc3ccc(O)cc3)C(N)=O)NC1=O)[C@@H]1C(=O)N(C)C(=O)[C@@H]12 [G1-major, [I-FRffNAK ]Y] | > 10 µM | 38% | 1.8 ± 0.3 µM | > 10 µM | > 10 µM | > 10 µM | > 10 µM | > 10 µM |  |  |
| C[C@@H]1NC(=O)[C@H](CC(N)=O)NC(=O)[C@@H](Cc2ccccc2)NC(=O)[C@@H](Cc2ccccc2)NC(=O)[C@H](CCCNC(=N)N)NC(=O)[C@@H](NC(=O)[C@@H](N)Cc2ccc(O)cc2)CSSC[C@@H](C(=O)N[C@@H](Cc2ccc(O)cc2)C(N)=O)NC(=O)[C@H](Cc2ccccc2)NC1=O [compound 29, Y[CRffNAFC]Y, reference compound] (HELM PEPTIDE1{Y.C.R.[dF].[dF].N.A.F.C.Y.[am]}$PEPTIDE1,PEPTIDE1,2:R3-9:R3$$$V2.0) | > 100 µM | 84% |  | > 100 µM | 2.5 ± 0.3 µM | 7.1 ± 0.5 µM | 9.5 ± 0.9 µM | 2.5 ± 0.5 µM |  | selective and almost full agonistic activity |
| C[C@@H]1NC(=O)[C@H](CC(N)=O)NC(=O)[C@@H](Cc2ccccc2)NC(=O)[C@@H](Cc2ccccc2)NC(=O)[C@H](CCCNC(=N)N)NC(=O)[C@H](Cc2ccccc2)N(C)C(=O)[C@@H]2N[C@H](c3ccc(cc3)C(=O)NCCCC[C@@H](C(=O)NCC(N)=O)NC(=O)[C@H](Cc3ccccc3)NC1=O)[C@@H]1C(=O)N(C)C(=O)[C@@H]12 [C4-major, [I-FRffNAFK ]G] | > 100 µM | 56% | 2.2 ± 1 µM | > 100 µM | 36 ± 3 µM | 72 ± 4 µM | > 100 µM | 88 ± 1 µM |  |  |
| C[C@@H]1NC(=O)[C@H](CC(N)=O)NC(=O)[C@H](Cc2ccccc2)NC(=O)[C@H](Cc2ccccc2)NC(=O)[C@H](CCCNC(=N)N)NC(=O)[C@H](Cc2ccccc2)N(C)C(=O)[C@H]2N[C@@H](c3ccc(cc3)C(=O)NCCCC[C@@H](C(=O)NCC(N)=O)NC(=O)[C@H](Cc3ccccc3)NC1=O)[C@H]1C(=O)N(c3ccccc3)C(=O)[C@H]12 [B3-major*, [ II-FRFFNAFK]G] | > 10 µM |  | > 10 µM | > 10 µM | > 10 µM | > 10 µM | > 10 µM | > 10 µM |  |  |
| CN1C(=O)[C@@H]2[C@H](C1=O)[C@H]1N[C@@H]2c2ccc(cc2)C(=O)NCCCC[C@@H](C(=O)N[C@@H](Cc2ccc(O)cc2)C(N)=O)NC(=O)[C@H](CC(N)=O)NC(=O)[C@H](Cc2ccccc2)NC(=O)[C@H](Cc2ccccc2)NC(=O)[C@H](CCCNC(=N)N)NC(=O)[C@H](Cc2ccccc2)N(C)C1=O [J1-major, [ I-FRFFNK ]Y] | > 100 µM | 51% | 17 ± 5 µM | > 100 µM | 41 ± 9 µM | > 100 µM | > 100 µM | > 100 µM |  |  |
| CN1C(=O)[C@H]2N[C@@H](c3ccc(cc3)C(=O)NCCCC[C@@H](C(=O)N[C@@H](Cc3ccc(O)cc3)C(N)=O)NC(=O)[C@H](CC(N)=O)NC(=O)[C@H](Cc3ccccc3)NC(=O)[C@H](Cc3ccccc3)NC(=O)[C@H](CCCNC(=N)N)NC(=O)[C@@H]1Cc1ccccc1)[C@H]1C(=O)N(c3ccccc3)C(=O)[C@H]12 [J2-major, [ II-FRFFNK ]Y] | > 100 µM | 46% | 6.4 ± 0.3 µM | > 100 µM | 11 ± 1 µM | 38 ± 6 µM | 39 ± 2 µM | 32 ± 1 µM |  |  |
| CN1C(=O)[C@H]2N[C@@H](c3ccc(cc3)C(=O)NCCCC[C@@H](C(=O)NCC(N)=O)NC(=O)[C@H](CC(N)=O)NC(=O)[C@@H](Cc3ccccc3)NC(=O)[C@@H](Cc3ccccc3)NC(=O)[C@H](CCCNC(=N)N)NC(=O)[C@@H]1Cc1ccccc1)[C@H]1C(=O)N(c3ccccc3)C(=O)[C@H]12 [K3-minor, [II-FRffNK ]G] | > 10 µM |  | > 10 µM | > 10 µM | > 10 µM | > 10 µM | > 10 µM | > 10 µM |  |  |
| C[C@@H]1NC(=O)[C@H](CC(N)=O)NC(=O)[C@H](Cc2ccccc2)NC(=O)[C@H](Cc2ccccc2)NC(=O)[C@H](CCCNC(=N)N)NC(=O)[C@H](Cc2ccccc2)N(C)C(=O)[C@@H]2N[C@H](c3ccc(cc3)C(=O)NCCCC[C@@H](C(=O)N[C@@H](Cc3ccc(O)cc3)C(N)=O)NC(=O)[C@H](Cc3ccccc3)NC1=O)[C@@H]1C(=O)N(C)C(=O)[C@@H]12 [B1-major, [ I-FRFFNAFK ]Y] | > 100 µM | 37% | 1.8 ± 1.2 µM | > 100 µM | 16 ± 2 µM | 34 ± 3 µM | 32 ± 2 µM | 41 ± 2 µM |  |  |
| COc1cc(N2C(=O)[C@@H]3[C@H](C2=O)[C@H]2N[C@@H]3c3ccc(cc3)C(=O)NCCCC[C@@H](C(=O)NCC(N)=O)NC(=O)[C@H](CC(N)=O)NC(=O)[C@@H](Cc3ccccc3)NC(=O)[C@@H](Cc3ccccc3)NC(=O)[C@H](CCCNC(=N)N)NC(=O)[C@H](Cc3ccccc3)N(C)C2=O)cc(OC)c1OC [K5-major, [XI-FRffNK ]G] | > 10 µM |  | > 10 µM | > 10 µM | > 10 µM | > 10 µM | > 10 µM | > 10 µM |  |  |
